Measurements reported in ChEMBL document CHEMBL4732253, “Free energy perturbation in the design of EED ligands as inhibitors of polycomb repressive complex 2 (PRC2) methyltransferase” (Bioorg Med Chem Lett, 2021).
≈ marks a conversion by molar mass, not a printed value.

Columns and labels:
[1] = Inhibition of PRC2 in human G-401 cells assessed as reduction in methylation of H3K27 trimethylation by HTRF assay; assay type: cell-based
[2] = target: Polycomb protein EED (Homo sapiens, UniProt O75530); test: Binding affinity to EED (unknown origin) assessed as dissociation constant by SPR analysis
Polycomb protein EED, sequence (O75530 whole entry): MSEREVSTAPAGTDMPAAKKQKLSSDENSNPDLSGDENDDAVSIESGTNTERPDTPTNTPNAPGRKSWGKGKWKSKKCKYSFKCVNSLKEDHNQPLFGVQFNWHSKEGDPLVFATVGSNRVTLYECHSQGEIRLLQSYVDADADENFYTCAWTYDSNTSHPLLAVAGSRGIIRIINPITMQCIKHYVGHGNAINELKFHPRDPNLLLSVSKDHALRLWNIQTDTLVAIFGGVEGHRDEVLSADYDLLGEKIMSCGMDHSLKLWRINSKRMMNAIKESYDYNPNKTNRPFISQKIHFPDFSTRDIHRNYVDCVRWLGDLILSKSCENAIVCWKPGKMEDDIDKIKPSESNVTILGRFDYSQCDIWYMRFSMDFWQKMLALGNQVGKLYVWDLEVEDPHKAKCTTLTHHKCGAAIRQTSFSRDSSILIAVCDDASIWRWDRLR

[3] = Lipophilicity, log D of the compound in Octanol/phosphate buffer at pH 7.4 by shake-flask method; assay type: physicochemical
[4] = Intrinsic clearance in human liver microsomes; assay type: ADME, Microsome; details: read-out: CLH
[5] = Intrinsic clearance in rat hepatocytes assessed per million cells; assay type: ADME, cell-based, Hepatocyte; details: read-out: CLH
[6] = Solubility of compound in PBS at pH 7.4 measured for 24 hrs; assay type: physicochemical

SMILES | IC50 [1] | Kd [2] | logD [3] | microsomal CLint [4] | hepatocyte CLint [5] | solubility at 24 h [6]
Cc1ncccc1-c1cnc(NCc2c(F)ccc3c2CCO3)n2cnnc12 | 5 nM | 400 nM | 2.5 | 15 µL/min/mg | 6 µL/min/1e6 cells | 
Cc1ncccc1-c1cnc(NCc2c(F)cc(F)c3c2CCO3)n2cnnc12 | 11 nM | 1200 nM | 2.6 | 9 µL/min/mg | 9 µL/min/1e6 cells | 4 µM (≈ 1.58 µg/mL)
Cc1ncccc1-c1cnc(NCc2c(F)cc(O)c3c2CCO3)n2cnnc12 | 15 nM |  | 1.8 | 9 µL/min/mg | 50 µL/min/1e6 cells | 5 µM (≈ 1.96 µg/mL)

The remaining compounds from weak to strong by IC50 [1], led by results:

IC50 [1] | Kd [2] | logD [3] | microsomal CLint [4] | hepatocyte CLint [5] | solubility at 24 h [6] | SMILES
15500 nM | 305000 nM | 2.3 | 20 µL/min/mg | 4 µL/min/1e6 cells | 21 µM (≈ 8.53 µg/mL) | COc1cc(F)c(CNc2ncc(-c3cccnc3C)c3nncn23)c2c1OCC2
102 nM | 15000 nM | 2.2 | 28 µL/min/mg | 10 µL/min/1e6 cells | 3 µM (≈ 1.2 µg/mL) | Cc1ncccc1-c1cnc(NCc2c(F)cc(C#N)c3c2CCO3)n2cnnc12
50 nM | 500 nM | 1.8 | 13 µL/min/mg | 7 µL/min/1e6 cells |  | Cc1ncccc1-c1cnc(NCc2c(F)cc(N)c3c2CCO3)n2cnnc12
16 nM | 2400 nM | 3.2 | 20 µL/min/mg | 9 µL/min/1e6 cells | 0.2 µM (≈ 0.0822 µg/mL) | Cc1ncccc1-c1cnc(NCc2c(F)cc(Cl)c3c2CCO3)n2cnnc12
